Laboratory results taken from the supplement of paper PMC10733146.

How the values were obtained:
Assay in all cases: viability relative to DMSO control (fraction); higher = less drug effect (more viable cells)
Conditions in all cases: 48 h
Nilotinib = compound: Cc1cn(-c2cc(NC(=O)c3ccc(C)c(Nc4nccc(-c5cccnc5)n4)c3)cc(C(F)(F)F)c2)cn1 [Nilotinib]
How it was run: (§1)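 Cells were incubated for 48 h at 37 °C and 5% CO2 in RPMI-1640 with penicillin/streptomycin, L-glutamine and human serum, at 4 × 10^4 cells per well in 384-well plates with compounds pre-plated at five concentrations, one well each. These were primary mononuclear tumour cells, fresh or cryopreserved, Ficoll-isolated from blood or bone marrow or obtained from processed lymph node. Viability values are CellTiter-Glo luminescence relative to the median of 16 inner DMSO wells.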

Vorinostat = compound: O=C(CCCCCCC(=O)Nc1ccccc1)NO [Vorinostat]
How it was run: as §1

BEZ235 = compound: Cn1c(=O)n(-c2ccc(C(C)(C)C#N)cc2)c2c3cc(-c4cnc5ccccc5c4)ccc3ncc21 [BEZ235]
How it was run: as §1

ONO-4059 = compound: CC#CC(=O)N1CC[C@@H](n2c(=O)n(-c3ccc(Oc4ccccc4)cc3)c3c(N)ncnc32)C1 [ONO-4059]
How it was run: as §1

Cladribine = compound: Nc1nc(Cl)nc2c1ncn2[C@H]1C[C@H](O)[C@@H](CO)O1 [Cladribine]
How it was run: as §1

[1] = compound: CC(C)(C)OC(=O)Nc1ccc(-c2cc(C(=O)NCCCCCCC(=O)NO)no2)cc1
How it was run: as §1

Birinapant = compound: CC[C@H](NC(=O)[C@H](C)NC)C(=O)N1C[C@@H](O)C[C@H]1Cc1c(-c2[nH]c3cc(F)ccc3c2C[C@@H]2C[C@H](O)CN2C(=O)[C@H](CC)NC(=O)[C@H](C)NC)[nH]c2cc(F)ccc12 [Birinapant]
How it was run: as §1

MLN-120B = compound: COc1c(Cl)cc2c([nH]c3cnccc32)c1NC(=O)c1cccnc1C [MLN-120B]
How it was run: as §1

ERK5-IN-1 = compound: CCOc1cc(C(=O)N2CCC(N3CCN(C)CC3)CC2)ccc1Nc1ncc2c(n1)N(C1CCCC1)c1ccccc1C(=O)N2C [ERK5-IN-1]
How it was run: as §1

[2] = compound: OCc1ccc(-c2ccc(-c3ccc(CO)s3)o2)s1
How it was run: as §1

EPZ-5676 = compound: CC(C)N(C[C@H]1O[C@@H](n2cnc3c(N)ncnc32)[C@H](O)[C@@H]1O)[C@H]1C[C@@H](CCc2nc3cc(C(C)(C)C)ccc3[nH]2)C1 [EPZ-5676]
How it was run: as §1

TMP269 = compound: O=C(NCC1(c2nc(-c3ccccc3)cs2)CCOCC1)c1cccc(-c2noc(C(F)(F)F)n2)c1 [TMP269]
How it was run: as §1

Obatoclax mesylate = compound: COC1=CC(c2cc3ccccc3[nH]2)=N/C1=C\c1[nH]c(C)cc1C [Obatoclax mesylate]
How it was run: as §1

BI6727 = compound: CC[C@@H]1C(=O)N(C)c2cnc(Nc3ccc(C(=O)N[C@H]4CC[C@H](N5CCN(CC6CC6)CC5)CC4)cc3OC)nc2N1C(C)C [BI6727]
How it was run: as §1

Quizartinib = compound: CC(C)(C)c1cc(NC(=O)Nc2ccc(-c3cn4c(n3)sc3cc(OCCN5CCOCC5)ccc34)cc2)no1 [Quizartinib]
How it was run: as §1

primary BL patient cells (S005)
viability (Nilotinib; 0.016 µM): 1.08
viability (Nilotinib; 0.08 µM): 1.02
viability (Nilotinib; 0.4 µM): 1.07
viability (Nilotinib; 2 µM): 1.03
viability (Nilotinib; 10 µM): 1.02
viability (Vorinostat; 0.016 µM): 0.977
viability (Vorinostat; 0.08 µM): 0.869
viability (Vorinostat; 0.4 µM): 0.863
viability (Vorinostat; 2 µM): 0.595
viability (Vorinostat; 10 µM): 0.689
viability (BEZ235; 0.024 µM): 1.28
viability (BEZ235; 0.12 µM): 0.972
viability (BEZ235; 0.6 µM): 1.12
viability (BEZ235; 3 µM): 0.756
viability (BEZ235; 15 µM): 0.544
viability (ONO-4059; 0.0016 µM): 1.07
viability (ONO-4059; 0.008 µM): 1.12
viability (ONO-4059; 0.04 µM): 1.06
viability (ONO-4059; 0.2 µM): 1.15
viability (ONO-4059; 1 µM): 1.07
viability (Cladribine; 0.024 µM): 0.965
viability (Cladribine; 0.12 µM): 1.08
viability (Cladribine; 0.6 µM): 0.933
viability (Cladribine; 3 µM): 0.912
viability (Cladribine; 15 µM): 0.83
viability ([1]; 0.024 µM): 1.06
viability ([1]; 0.12 µM): 0.802
viability ([1]; 0.6 µM): 0.738
viability ([1]; 3 µM): 0.591
viability ([1]; 15 µM): 0.382
viability (Birinapant; 0.0008 µM): 1.07
viability (Birinapant; 0.004 µM): 0.726
viability (Birinapant; 0.02 µM): 0.672
viability (Birinapant; 0.1 µM): 1.14
viability (Birinapant; 0.5 µM): 0.631
viability (MLN-120B; 0.024 µM): 0.979
viability (MLN-120B; 0.12 µM): 1.01
viability (MLN-120B; 0.6 µM): 0.981
viability (MLN-120B; 3 µM): 1.01
viability (MLN-120B; 15 µM): 0.861
viability (ERK5-IN-1; 0.024 µM): 1.07
viability (ERK5-IN-1; 0.12 µM): 1.09
viability (ERK5-IN-1; 0.6 µM): 1
viability (ERK5-IN-1; 3 µM): 0.89
viability (ERK5-IN-1; 15 µM): 0.631
viability ([2]; 0.024 µM): 0.798
viability ([2]; 0.12 µM): 0.926
viability ([2]; 0.6 µM): 0.821
viability ([2]; 3 µM): 0.931
viability ([2]; 15 µM): 0.616
viability (EPZ-5676; 0.0032 µM): 1.54
viability (EPZ-5676; 0.016 µM): 1.13
viability (EPZ-5676; 0.08 µM): 1.46
viability (EPZ-5676; 0.4 µM): 1.35
viability (EPZ-5676; 2 µM): 1
viability (TMP269; 0.024 µM): 1.11
viability (TMP269; 0.12 µM): 1.08
viability (TMP269; 0.6 µM): 1.12
viability (TMP269; 3 µM): 1.08
viability (TMP269; 15 µM): 1
viability (Obatoclax mesylate; 0.024 µM): 0.895
viability (Obatoclax mesylate; 0.12 µM): 0.821
viability (Obatoclax mesylate; 0.6 µM): 0.589
viability (Obatoclax mesylate; 3 µM): 0.465
viability (Obatoclax mesylate; 15 µM): 0.209
viability (BI6727; 0.024 µM): 0.931
viability (BI6727; 0.12 µM): 0.881
viability (BI6727; 0.6 µM): 0.9
viability (BI6727; 3 µM): 0.725
viability (BI6727; 15 µM): 0.483
viability (Quizartinib; 0.016 µM): 1.01
viability (Quizartinib; 0.08 µM): 1.1
viability (Quizartinib; 0.4 µM): 1.07
viability (Quizartinib; 2 µM): 1.11
viability (Quizartinib; 10 µM): 0.966

primary CLL patient cells (S031)
viability (Nilotinib; 0.016 µM): 1.09
viability (Nilotinib; 0.08 µM): 1.12
viability (Nilotinib; 0.4 µM): 1.16
viability (Nilotinib; 2 µM): 1.13
viability (Nilotinib; 10 µM): 1.09
viability (Vorinostat; 0.016 µM): 0.963
viability (Vorinostat; 0.08 µM): 0.995
viability (Vorinostat; 0.4 µM): 0.879
viability (Vorinostat; 2 µM): 0.197
viability (Vorinostat; 10 µM): 0.0346
viability (BEZ235; 0.024 µM): 0.859
viability (BEZ235; 0.12 µM): 0.812
viability (BEZ235; 0.6 µM): 0.727
viability (BEZ235; 3 µM): 0.562
viability (BEZ235; 15 µM): 0.132
viability (ONO-4059; 0.0016 µM): 0.831
viability (ONO-4059; 0.008 µM): 0.829
viability (ONO-4059; 0.04 µM): 0.719
viability (ONO-4059; 0.2 µM): 0.749
viability (ONO-4059; 1 µM): 0.72
viability (Cladribine; 0.024 µM): 0.442
viability (Cladribine; 0.12 µM): 0.115
viability (Cladribine; 0.6 µM): 0.0501
viability (Cladribine; 3 µM): 0.0402
viability (Cladribine; 15 µM): 0.031
viability ([1]; 0.024 µM): 0.987
viability ([1]; 0.12 µM): 0.97
viability ([1]; 0.6 µM): 0.867
viability ([1]; 3 µM): 0.141
viability ([1]; 15 µM): 0.0256
viability (Birinapant; 0.0008 µM): 0.788
viability (Birinapant; 0.004 µM): 0.923
viability (Birinapant; 0.02 µM): 0.919
viability (Birinapant; 0.1 µM): 0.857
viability (Birinapant; 0.5 µM): 0.984
viability (MLN-120B; 0.024 µM): 0.859
viability (MLN-120B; 0.12 µM): 0.889
viability (MLN-120B; 0.6 µM): 0.836
viability (MLN-120B; 3 µM): 0.813
viability (MLN-120B; 15 µM): 0.719
viability (ERK5-IN-1; 0.024 µM): 0.949
viability (ERK5-IN-1; 0.12 µM): 0.925
viability (ERK5-IN-1; 0.6 µM): 0.839
viability (ERK5-IN-1; 3 µM): 0.651
viability (ERK5-IN-1; 15 µM): 0.223
viability ([2]; 0.024 µM): 0.885
viability ([2]; 0.12 µM): 0.907
viability ([2]; 0.6 µM): 0.884
viability ([2]; 3 µM): 0.711
viability ([2]; 15 µM): 0.106
viability (EPZ-5676; 0.0032 µM): 0.887
viability (EPZ-5676; 0.016 µM): 0.952
viability (EPZ-5676; 0.08 µM): 0.895
viability (EPZ-5676; 0.4 µM): 0.881
viability (EPZ-5676; 2 µM): 0.925
viability (TMP269; 0.024 µM): 0.914
viability (TMP269; 0.12 µM): 0.904
viability (TMP269; 0.6 µM): 0.989
viability (TMP269; 3 µM): 0.939
viability (TMP269; 15 µM): 0.992
viability (Obatoclax mesylate; 0.024 µM): 0.88
viability (Obatoclax mesylate; 0.12 µM): 0.863
viability (Obatoclax mesylate; 0.6 µM): 0.738
viability (Obatoclax mesylate; 3 µM): 0.384
viability (Obatoclax mesylate; 15 µM): 0.0738
viability (BI6727; 0.024 µM): 0.922
viability (BI6727; 0.12 µM): 0.854
viability (BI6727; 0.6 µM): 0.866
viability (BI6727; 3 µM): 0.524
viability (BI6727; 15 µM): 0.178
viability (Quizartinib; 0.016 µM): 1.03
viability (Quizartinib; 0.08 µM): 1.15
viability (Quizartinib; 0.4 µM): 1.04
viability (Quizartinib; 2 µM): 1.13
viability (Quizartinib; 10 µM): 1.02
